Experimental data published in US20230382925A1, “MODULATORS OF CYSTIC FIBROSIS TRANSMEMBRANE CONDUCTANCE REGULATOR” (VERTEX PHARMACEUTICALS INCORPORATED, priority 2020, published 2023).

Molecular target: CFTR (Homo sapiens, UniProt P13569)
Assay: Membrane Potential Dye, Enteroid Assay A
Assay type: cell-based
Conditions: for EC50: read-out: Ent. A EC50
Protocol: Base medium (ADF+++) consisted of Advanced […], 2 mM Glutamax, 10 mM HEPES, 1 μg/mL penicillin/streptomycin.
Intestinal enteroid maintenance medium (IEMMN) consisted of ADF+++, 1× B27 supplement, 1× N2 supplement, 1.25 mM N-acetyl cysteine, 10 mM Nicotinamide, 50 ng/mL hEGF, 10 nM Gastrin, 1 μg/mL hR-spondin-1, 100 ng/mL hNoggin, TGF-b type 1 inhibitor A-83-01, 100 μg/mL Primocin, 10 μM P38 MAPK inhibitor SB202190.
Bath 1 Buffer consisted of 1 mM MgCl2, 160 mM NaCl, 4.5 mM KCl, 10 mM HEPES, 10 mM Glucose, 2 mM CaCl2).
Chloride Free Buffer consisted of 1 mM Magnesium Gluconate, 2 mM Calcium Gluconate, 4.5 mM Potassium Gluconate, 160 mM Sodium Gluconate, 10 mM HEPES, 10 mM Glucose.
Bath 1 Dye Solution consisted of Bath 1 Buffer, 0.04% Pluronic F127, 20 μM Methyl Oxonol, 30 μM CaCCinh-A01, 30 μM Chicago Sky Blue.
Chloride Free Dye Solution consisted of Chloride Free Buffer, 0.04% Pluronic F127, 20 μM Methyl Oxonol, 30 μM CaCCinh-A01, 30 μM Chicago Sky Blue.
Chloride Free Dye Stimulation Solution consisted of Chloride Free Dye Solution, 10 μM forskolin, 100 μM IBMX, and 300 nM Compound III.
Human intestinal epithelial enteroid cells were obtained from the Hubrecht Institute for Developmental Biology and Stem Cell Research, Utrecht, The Netherlands and expanded in T-Flasks as previously described (Dekkers J F, Wiegerinck C L, de Jonge H R, Bronsveld I, Janssens H M, de Winter-de Groot K M, Brandsma A M, de Jong N W M, Bijvelds M J C, Scholte B J, Nieuwenhuis E E S, van den Brink S, Clevers H, van der Ent C K, Middendorp S and M Beekman J M. A functional CFTR assay using primary cystic fibrosis intestinal organoids. Nat Med. 2013 July; 19(7):939-45.).
3. Enteroid Cell Harvesting and Seeding
Cells were recovered in cell recovery solution, collected by centrifugation at 650 rpm for 5 min at 4° C., resuspended in TrypLE and incubated for 5 min at 37° C. Cells were then collected by centrifugation at 650 rpm for 5 min at 4° C. and resuspended in IEMM containing 10 μM ROCK inhibitor (RI). The cell suspension was passed through a 40 μm cell strainer and resuspended at 1×10^6 cells/mL in IEMM containing 10 μM RI. Cells were seeded at 5000 cells/well into multi-well plates and incubated for overnight at 37° C., 95% humidity and 5% CO2 prior to assay.
4. Membrane Potential Dye, Enteroid Assay A
Enteroid cells were incubated with test compound in IEMM for 18-24 hours at 37° C., 95% humidity and 5% CO2. […] Briefly, cells were washed 5 times in Bath 1 Buffer. Bath 1 Dye Solution was added, and the cells were incubated for 25 min at room temperature. Following dye incubation, cells were washed 3 times in Chloride Free Dye Solution. Chloride transport was initiated by addition of Chloride Free Dye Stimulation Solution and the fluorescence signal was read for 15 min. […] Chloride transport was then expressed as a percentage of the chloride transport following treatment with 3 μM N-[(6-amino-2-pyridyl)sulfonyl]-6-(3-fluoro-5-isobutoxy-phenyl)-2-[(4S)-2,2,4-trimethylpyrrolidin-1-yl]pyridine-3-carboxamide, 3 μM (R)-1-(2,2-difluorobenzo[d][1,3]dioxol-5-yl)-N-(1-(2,3-dihydroxypropyl)-6-fluoro-2-(1-hydroxy-2-methylpropan-2-yl)-1H-indol-5-yl)cyclopropanecarboxamide and 300 nM acute N-[2,4-bis(1,1-dimethylethyl)-5-hydroxyphenyl]-1,4-dihydro-4-oxoquinoline-3-carboxamide triple combination control (% Activity).

CFTR, sequence (P13569 with tags, fused parts or gaps DEL508-508): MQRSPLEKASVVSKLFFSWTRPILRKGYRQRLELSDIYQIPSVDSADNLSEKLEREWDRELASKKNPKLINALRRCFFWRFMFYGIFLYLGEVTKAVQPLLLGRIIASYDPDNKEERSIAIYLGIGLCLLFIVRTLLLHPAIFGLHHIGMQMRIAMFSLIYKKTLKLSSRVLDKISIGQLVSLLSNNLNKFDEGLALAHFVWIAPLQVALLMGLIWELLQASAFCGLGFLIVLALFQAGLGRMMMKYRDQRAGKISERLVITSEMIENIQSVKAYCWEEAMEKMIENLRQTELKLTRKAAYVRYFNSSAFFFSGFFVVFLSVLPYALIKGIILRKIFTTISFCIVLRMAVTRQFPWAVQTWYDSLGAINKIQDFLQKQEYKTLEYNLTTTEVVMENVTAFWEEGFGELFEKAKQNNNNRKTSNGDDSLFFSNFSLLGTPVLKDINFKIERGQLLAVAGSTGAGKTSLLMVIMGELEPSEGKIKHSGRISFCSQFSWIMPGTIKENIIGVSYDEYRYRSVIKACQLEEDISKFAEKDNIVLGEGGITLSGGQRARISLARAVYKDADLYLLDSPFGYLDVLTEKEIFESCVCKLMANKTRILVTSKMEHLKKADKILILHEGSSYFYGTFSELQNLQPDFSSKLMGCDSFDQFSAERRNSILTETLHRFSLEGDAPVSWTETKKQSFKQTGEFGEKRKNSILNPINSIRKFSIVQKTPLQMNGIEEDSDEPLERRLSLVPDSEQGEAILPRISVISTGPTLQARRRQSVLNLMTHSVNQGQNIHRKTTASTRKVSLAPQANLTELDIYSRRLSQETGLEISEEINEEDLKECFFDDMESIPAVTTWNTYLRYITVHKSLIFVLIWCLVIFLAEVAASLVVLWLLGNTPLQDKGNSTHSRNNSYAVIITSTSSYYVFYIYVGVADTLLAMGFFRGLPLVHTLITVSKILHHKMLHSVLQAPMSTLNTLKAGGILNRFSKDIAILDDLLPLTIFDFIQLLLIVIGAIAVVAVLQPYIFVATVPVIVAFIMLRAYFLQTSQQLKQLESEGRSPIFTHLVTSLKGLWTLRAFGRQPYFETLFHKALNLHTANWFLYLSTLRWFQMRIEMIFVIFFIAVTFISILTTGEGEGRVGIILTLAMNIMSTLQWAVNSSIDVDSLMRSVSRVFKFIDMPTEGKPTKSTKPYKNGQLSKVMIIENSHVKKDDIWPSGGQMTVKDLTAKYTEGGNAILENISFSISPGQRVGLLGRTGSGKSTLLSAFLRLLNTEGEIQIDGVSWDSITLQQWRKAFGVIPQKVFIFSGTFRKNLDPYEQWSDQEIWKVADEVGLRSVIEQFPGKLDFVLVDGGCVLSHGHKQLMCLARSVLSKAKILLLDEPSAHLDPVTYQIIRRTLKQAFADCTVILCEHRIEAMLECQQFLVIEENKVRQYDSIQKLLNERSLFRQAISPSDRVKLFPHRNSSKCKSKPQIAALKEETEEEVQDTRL

| Ent. A Max Activity (%) | EC50 [nM] | Structure (SMILES) |
| --- | --- | --- |
| +++ (+++ is >60%) | < 1000 | Cc1cccc(C)c1-c1cc2nc(n1)NS(=O)(=O)c1cccc(c1)C(=O)N([C@H]1CC3(C[C@H](N(C)C)C3)C1)[C@H](CC(C)C)CO2 (stereo partly shown) [Compound 314] |
| +++ (+++ is >60%) | < 1000 | Cc1cccc(C)c1-c1cc2nc(n1)NS(=O)(=O)c1cccc(c1)C(=O)N(C1CC3(CCCC3)C1)[C@H](CC(C)C)CO2 [Compound 339] |
| ++ (++ is 30-60%) | < 1000 | Cc1cccc(C)c1-c1cc2nc(n1)NS(=O)(=O)c1cccc(c1)C(=O)N(C1CC3(CCCCC3)C1)[C@H](CC(C)C)CO2 [Compound 338] |
| +++ (+++ is >60%) | < 1000 | COC(=O)N1CCCC2(CC(N3C(=O)c4cccc(c4)S(=O)(=O)Nc4nc(cc(-c5c(C)cccc5C)n4)OC[C@H]3CC(C)C)C2)C1 (stereo partly shown) [Compound 327] |
| +++ (+++ is >60%) | < 1000 | Cc1cccc(C)c1-c1cc2nc(n1)NS(=O)(=O)c1cccc(c1)C(=O)N([C@H]1C[C@]3(CCN(C(C)C)C3)C1)[C@H](CC(C)C)CO2 (single isomer, unassigned) [Compound 33] |
| +++ (+++ is >60%) | < 1000 | Cc1cccc(C)c1-c1cc2nc(n1)NS(=O)(=O)c1cccc(c1)C(=O)N(C1CC3(CCN(C[C@H](O)CO)CC3)C1)[C@H](CC(C)C)CO2 [Compound 341] |
| ++ (++ is 30-60%) | < 1000 | COC(=O)N1CCC2(CC1)CC(N1C(=O)c3cccc(c3)S(=O)(=O)Nc3nc(cc(C4CCCCC4(C)C)n3)OC[C@H]1CC(C)C)C2 (stereo partly shown) [Compound 395] |
| ++ (++ is 30-60%) | < 1000 | Cc1cccc(C)c1-c1cc2nc(n1)NS(=O)(=O)c1cccc(c1)C(=O)N(C1CC3(CC3)C1)C(CC(F)(F)F)CO2 (single isomer, unassigned) [Compound 125, 6-(2,6-dimethylphenyl)-12-{spiro[2.3]hexan-5-yl}-11-(2,2,2-trifluoroethyl)-9-oxa-2λ^6-thia-3,5,12,19-tetraazatricyclo[12.3.1.14,8]nonadeca-1(17),4(19),5,7,14(18),15-hexaene-2,2,13-trione] |
| +++ (+++ is >60%) | < 1000 | Cc1cccc(C)c1-c1cc2nc(n1)NS(=O)(=O)c1cccc(c1)C(=O)N([C@H]1C[C@]3(CCCCN3C)C1)[C@H](CC(C)C)CO2 [Compound 331] |
| +++ (+++ is >60%) | < 1000 | COC(=O)N1CCC2(CC(N3C(=O)c4cccc(c4)S(=O)(=O)Nc4nc(cc(-c5c(C)cccc5C)n4)OC[C@H]3CC(C)C)C2)C1 (stereo partly shown) [Compound 328] |
| +++ (+++ is >60%) | < 1000 | Cc1cccc(C)c1-c1cc2nc(n1)NS(=O)(=O)c1cccc(c1)C(=O)N(C1CCC(C)(C)C1)[C@H](CC(C)C)CO2 (stereo partly shown) [Compound 348] |
| +++ (+++ is >60%) | 1000 to 3000 | Cc1cccc(C)c1-c1cc2nc(n1)NS(=O)(=O)c1cccc(c1)C(=O)N(C1CC3(CCN(C)CC3)C1)C(CC1(C(F)(F)F)CC1)CO2 (single isomer, unassigned) [Compound 137, 6-(2,6-dimethylphenyl)-12-(7-methyl-7-azaspiro[3.5]nonan-2-yl)-2,2-dioxo-11-[[1-(trifluoromethyl)cyclopropyl]methyl]-9-oxa-2λ^6-thia-3,5,12,19-tetrazatricyclo[12.3.1.14,8]nonadeca-1(18),4(19),5,7,14,16-hexaen-13-one] |
| ++ (++ is 30-60%) | < 1000 | COC(=O)N1CCC2(CC1)CC(N1C(=O)c3cccc(c3)S(=O)(=O)Nc3nc(cc(C4CCCCC4(C)C)n3)OC[C@H]1CC(C)C)C2 (stereo partly shown) [Compound 396] |
| +++ (+++ is >60%) | 1000 to 3000 | Cc1cccc(C)c1-c1cc2nc(n1)NS(=O)(=O)c1cccc(c1)C(=O)N([C@H]1C[C@@H](CO)C1)[C@H](CC(C)C)CO2 (single isomer, unassigned) [Compound 40] |
| +++ (+++ is >60%) | < 1000 | Cc1cccc(C)c1-c1cc2nc(n1)NS(=O)(=O)c1cccc(c1)C(=O)N([C@H]1C[C@]3(CCCN(C)C3)C1)[C@H](CC(C)C)CO2 [Compound 332] |
| +++ (+++ is >60%) | < 1000 | Cc1cccc(C)c1-c1cc2nc(n1)NS(=O)(=O)c1cccc(c1)C(=O)N(C1CC3(COC3)C1)[C@H](CC(C)C)CO2 [Compound 29, (11R)-6-(2,6-Dimethylphenyl)-11-isobutyl-12-(2-oxaspiro[3.3]heptan-6-yl)-2,2-dioxo-9-oxa-2λ^6-thia-3,5,12,19-tetrazatricyclo[12.3.1.14,8]nonadeca-1(18),4(19),5,7,14,16-hexaen-13-one] |
| ++ (++ is 30-60%) | < 1000 | CC(C)C[C@@H]1COc2cc(C3CCCCC3(C)C)nc(n2)NS(=O)(=O)c2cccc(c2)C(=O)N1C1CC2(CCN(C(=O)OC(C)(C)C)CC2)C1 (stereo partly shown) [Compound 400] |
| ++ (++ is 30-60%) | < 1000 | Cc1cccc(C)c1-c1cc2nc(n1)NS(=O)(=O)c1cccc(c1)C(=O)N([C@H]1C[C@@H](OCc3ccccc3)C1)[C@H](CC(C)C)CO2 (single isomer, unassigned) [Compound 42] |
| ++ (++ is 30-60%) | < 1000 | CC(=O)N1CC2(CC(N3C(=O)c4cccc(c4)S(=O)(=O)Nc4nc(cc(-c5c(C)cccc5C)n4)OC[C@H]3CC(C)C)C2)C1 [Compound 335] |
| +++ (+++ is >60%) | < 1000 | Cc1cccc(C)c1-c1cc2nc(n1)NS(=O)(=O)c1cccc(c1)C(=O)N([C@H]1CC3(C[C@H](C(=O)N(C)C)C3)C1)[C@H](CC(C)C)CO2 (stereo partly shown) [Compound 342] |
| +++ (+++ is >60%) | < 1000 | COC(=O)N1CCC2(CC1)CC(N1C[C@@H](C)Oc3cc(-c4c(C)cccc4C)nc(n3)NS(=O)(=O)c3cccc(c3)C1=O)C2 [Compound 312] |
| +++ (+++ is >60%) | < 1000 | Cc1cccc(C)c1-c1cc2nc(n1)NS(=O)(=O)c1cccc(c1)C(=O)N(C1CCCC1)[C@H](CC(C)C)CO2 [Compound 30, (11R)-12-Cyclopentyl-6-(2,6-dimethylphenyl)-11-isobutyl-2,2-dioxo-9-oxa-2λ^6-thia-3,5,12,19-tetrazatricyclo[12.3.1.14,8]nonadeca-1(18),4(19),5,7,14,16-hexaen-13-one] |
| ++ (++ is 30-60%) | < 1000 | CC(=O)N1C[C@H]2C[C@H](N3C(=O)c4cccc(c4)S(=O)(=O)Nc4nc(cc(-c5c(C)cccc5C)n4)OC[C@H]3CC(C)C)C[C@H]2C1 [Compound 336] |
| +++ (+++ is >60%) | 1000 to 3000 | Cc1cccc(C)c1-c1cc2nc(n1)NS(=O)(=O)c1cccc(c1)C(=O)N(C1CC3(CCN(C)CC3)C1)C[C@@H](C)O2 [Compound 179, (10R)-6-(2,6-Dimethylphenyl)-10-methyl-12-(7-methyl-7-azaspiro[3.5]nonan-2-yl)-2,2-dioxo-9-oxa-2λ^6-thia-3,5,12,19-tetrazatricyclo[12.3.1.14,8]nonadeca-1(18),4(19),5,7,14,16-hexaen-13-one] |
| +++ (+++ is >60%) | < 1000 | Cc1cccc(C)c1-c1cc2nc(n1)NS(=O)(=O)c1cccc(c1)C(=O)N([C@H]1C[C@]3(CCN(C(C)C)C3)C1)[C@H](CC(C)C)CO2 (single isomer, unassigned) [Compound 34] |
| +++ (+++ is >60%) | < 1000 | COC(=O)N1CCCC2(CC(N3C(=O)c4cccc(c4)S(=O)(=O)Nc4nc(cc(-c5c(C)cccc5C)n4)OC[C@H]3CC(C)C)C2)C1 (stereo partly shown) [Compound 324] |
